From patent US11246961B2, “Engineered scaffolds for vascularized tissue repair” (The Regents of the University of California, priority 2016, dated 2022)
“Also recorded” adds a separate entry of the source.

Legend:
HECFCs = test: on-bead whole cell binding assay, HECFCs; type: cell-based, human
Text: Endothelial colony forming cells (ECFCs), a subtype of EPCs also often referred to as outgrowth endothelial cells (OECs), were isolated from human umbilical cord blood as previously described (Williams et al. (2015) PloS One 10:e0123437; Ingram et al. (2004) Blood 104:2752). Human umbilical cord blood (10 U heparin/mL blood) was obtained from the UC Davis Umbilical Cord Blood Collection Program (UCBCP) and diluted 1:1 with Phosphate-buffered saline (PBS), without calcium and magnesium, pH 7.2 (Hyclone). Fifteen mL Ficoll-Paque PLUS (Amersham Biosciences) was laid at the bottom of 20 mL diluted blood and centrifuged at 2000 rpm for 30 minutes at room temperature. The hazy layer of mononuclear cells (MNCs) that seat at the interface between the Ficoll and serum was collected and dispensed into 50-mL conical tube containing 10 mL EBM-2 (Lonza) and centrifuged at 1500 rpm for 10 minutes at room temperature. The supernatant was carefully aspirated and the pellets were treated with red blood cell lysis buffer (eBioscience, Inc.) and then sorted by CD34 microbead magnetic sorting (Miltenyi Biotec GmbH) as per manufacturer's instructions. The CD34^+ cells were seeded on rat-tail collagen I (BD Biosciences Discovery) coated tissue culture plates and cultured in EGM-2 media (Lonza). After 24 h, non-adherent cells were removed and the media was changed daily to day 7 and every other day thereafter. ECFC-derived colonies appeared between day 4 and day 7 of culture with s typical endothelial cobblestone pattern. Individual colonies were isolated and expanded and allowed to grow to 80% to 90% confluency before first passage. ECFCs were used between P3 and P5 for all experiments.
HECFCs, HCAECs, HMVECs and THP-1 monocytes were cultured in their respective growth medium as described in Example 1. For cell bead-binding assay, 6×10^5 HECFCs, HCAECs, HMVECs or THP-1 monocytes in 2 mL of their respective culture medium were added to an ultra-low attachment 35-mm petri dish (Corning Incorporated) followed by resin beads (Lam et al. (1991) Nature 354:82). […]

HCAECs = test: MTS assay of EC proliferation on LXW7; type: cell-based, human; details: vs D-biotin treated surface; up to 5 days
Protocol: The 96-well plates from Example 3 were treated with 1 μM Avidin solution for 1 hour at room temperature. Avidin coated wells were rinsed three times with DPBS and treated with LXW7-bio (1 μM), with D-biotin (1 μM) serving as the control. After 1 hour, the wells were washed three times with DPBS and blocked with 1% BSA for 1 hour. 3×10^3 viable HCAECs were seeded per well and cultured in EGM-2 media for 5 days. MTS assay was performed at each day as per the manufacturer instructions (Interchim) and analyzed on SpectraMax-3 plate reader (Molecular Devices).

ERK1/2 = test: Western-blot analysis, phosphorylation of ERK1/2; type: cell-based, human; details: LXW7 treated surface, 96 hours, vs D-biotin
Protocol: The 100-mm dishes from Example 2 were treated with Avidin followed by LXW7-bio or D-biotin as described in Example 5. 8×10^5 HCAECs were seeded per dish and cultured in EGM-2 media for 4 days. Cells were lysed using Extraction Kit (Thermo Fisher Scientific) and protein concentrations were determined using BCA Protein Assay (Thermo Fisher Scientific). Fifteen μg of each sample were loaded and separated using a 4-12% Bis-Tris NuPAGE gel (Thermo Fisher Scientific) and transferred to a nitrocellulose membrane. The membrane was blocked in 5% BSA in TBST (Tris-buffered saline with 0.5% Tween-20), and subsequently incubated with primary antibodies anti-VEGF Receptor 2, anti-Phospho-VEGF Receptor 2, anti-p44/42 MAPK (Erk1/2) and anti-Phospho-p44/42 MAPK (Erk1/2) (Thr202/Tyr204), all purchased from Cell Signaling Technologies, in 1% BSA overnight at 4° C. After washing three times with TBST, the membranes were incubated with respective horseradish peroxidase-conjugated secondary antibodies in 1% non-fat dry milk in TBST (BioRad) for 1 hour at room temperature. After washing, the protein bands were visualized using West Dura Substrate (Thermo Fisher Scientific) and quantified using Image J software.

VEGFR-2 = test: mRNA level of VEGFR-2 on EPCs; type: cell-based; details: EPCs treated with LXW7
Protocol: FIG. 15 presents graphs of mRNA levels of VEGFR-2 (A) and EGFR (B) on EPCs after treating with different concentrations of LXW7 for 48 h. *P<0.05 vs. Control, #P<0.05 vs. 25 nM (n=10 per group).

Substance: cGRGDdvc [LXW7]
- attachment of HECFCs to beads displaying LXW7 (HECFCs; 10 minutes, 30 minutes or 2 hours): efficiently supported attachment of EPCs/ECs from different sources; also recorded: efficiently supported EPC/EC attachment
- binding of HECFCs to ligand-displaying resin beads (HECFCs; 2 hours incubation): bound both HECFCs and HCAECs
- EC proliferation on LXW7 treated surface (MTS) (HCAECs): significantly promoted EC proliferation after 48 hours in culture
- phosphorylation of ERK1/2 in ECs (ERK1/2): significantly increased
- VEGFR2 mRNA level (VEGFR-2): increases in VEGFR2 and EGFR mRNA levels were found to be dependent on treatment time
